Values joined by “and” are separate entries in the source; they are usually repeats but may differ in a detail not shown here. Identical values can stand only once. Counter-ions that a name gives are not always drawn.
Experiments:
[1] = Micelle characterization by gel filtration with triple detector analysis (TDA); type: physicochemical; conditions: for dn/dc, specific refractive index increment / IV, intrinsic viscosity / N, aggregation number of micelles / Rh (nm) / MMW, molecular weight of micelles / Mw/Mn, weight-averaged molecular weight divided by number-averaged molecular weight: TDA; for IV, intrinsic viscosity / N, aggregation number of micelles / Rh (nm) / MMW, molecular weight of micelles: 20 mM HEPES, 150 mM NaCl buffer; for IV, intrinsic viscosity / N, aggregation number of micelles / Rh (nm) / MMW, molecular weight of micelles / Mw/Mn, weight-averaged molecular weight divided by number-averaged molecular weight: mean ± SD; for MMW, molecular weight of micelles: TFA-1 n = 6, DDM n = 8; for Mw/Mn, weight-averaged molecular weight divided by number-averaged molecular weight: micelles; for MW of micelles in water: summary statement
Protocol: Micelles formed by DDM or by TFA-1 in pH 7.0 buffer (20 mM HEPES, 150 mM NaCl) were further characterized by gel filtration using a triple-detector system (Gatta et al., Anal. Biochem. 2010, 404, 21-29), analyzing light scattering, refractive index, and differential pressure (Table 2). In both cases the micelles are globular and monodisperse. TFA-1 micelles contain only 6 molecules, which contrasts with the ˜175 molecules in a DDM micelle. TFA-2 (R=ethyl) behaved similarly to TFA-1 (R=methyl), given the similarity in Rh, but TFA-3 (R=butyl) forms larger micelles. A related trend was observed among lipopeptides, with increasing length of the alkyl appendages leading to increasing micelle size (McGregor et al., Nat. Biotech. 2003, 21, 171-176).
The on-line SEC triple detector array (Gatta et al., Anal. Biochem. 404, 21 (2010)) (Viscotek Corporation, a Malvern Company) used for detergent analysis is composed of 1) a 660 nm differential refractometer for quantifying the concentration C (mg/mL) for all molecules according to their specific refractive index increment do/dc (mL/g) using Snell's Law of Refraction (RI signal=KRI*C*(dn/dc)/RISol), 2), a single right angle 90° static light scattering (RALS) detector for measuring the average mass M (Da) according to the Raleigh Light Scattering Equation for small molecules (LS90° signal=Mavg*RIsol^2*C*(dn/dc)^2)/KLS*Kopt, where Kopt=4*π^2/(λ^4*NA), and 3) an absolute differential viscometer (Haney, J. Appl. Polym. Sci. 30, 3023 (1985)) for measuring differential pressure (DP) and calculating intrinsic viscosity (IV; dL/g) according to Newtonian Viscosity (liquid layers) applied to tubes using Poiseulle's Law (DP signal=IV*C) and for calculating the radius of hydration Rh (nm) according to Einstein's volume of hydration equation for hard spheres (Rh=[( 3/10π)*IV*M/NA]^1/3).
The IV represents molecular shape and for proteins it can vary from 0.017 dl/g for globular shapes to 0.355 dl/g for elongated shapes to 0.499 dl/g for complete denaturation (Scheraga and Mandelkern, J. Chem. Phys. 75, 179-184 (1953); Dutta et al., J. Chromatogr. 536, 113-121 (1991); Chenal et al., J. Biol. Chem. 16, 284(3), 1781-1789 (2009)). The chromatography pump, injector, SEC column (0.75×60 cm TSK G3000 plus guard column), and TDArray are placed in a 4° C. cold box, while the buffer (degassed for more than 1 hr with stir prior use) is at room temperature (RT) to allow it to be run through a RT on-line degasser, which then runs though 3 ft of 4° C. stainless steel tubing before entering the SEC pump, injector and column. The extensive degassing insures an accurate DP measurement. With this configuration, the temperature at the detectors is 6° C. TDA buffer was 20 mM Hepes, 150 mM NaCl, […] and either 0.1 mM TFA-1 or 1 mM DDM. The refractive index of the solvent RISol was measured at 10° C. using an Anton Paar Abbemat temperature controlled refractometer at 589.2 nm. Triple detection data at every 5 Hz data point throughout the complete SEC peak were used for all analysis.
For calibration, the detector response factors KRI and KLS were measured using Ovalbumin Fraction VII (Sigma). Prior to calibration, ovalbumin was first purified by SEC (280 nm detection) at 4° C. to remove small populations of dimers and aggregates, and to insure Gaussian detector peaks for TDA calibration. Ovalbumin was solubilized at 26 mg/mL in TDA buffer at 4° C. for 10 min and clarified by centrifugation (10 min 15,000×g); collecting the top 30% of the SEC elution peak from 500 μL injections yielded monodisperse ovalbumin at 5-7 mg/mL. Ovalbumin mass was 44.3 kDa (Sigma Product Information sheet and references therein) with a 0.701 dA280nm/dc (Pace et al., Prot. Sci. 4(11), 2411-2423 (1995)) and 0.187 dn/dc (Maezawa et al., Biochem. Biophys. Acta 747, 291-297 (1983); Hayashi et al., Methods Enzymol. 172, 514-528 (1989)). […]

[2] = Hydrodynamic radii of micelles by dynamic light scattering (DLS); type: physicochemical; conditions: 0.5 wt % amphiphile in water, 25° C.; mean ± SD, n = 3
Protocol: TFA-0 forms a hydrogel at concentrations >0.4 wt %, and this compound was not studied further. The other three TFAs are soluble to 5-10 wt % in aqueous media. Critical micelle concentrations (CMC) were determined by monitoring solubilization of a hydrophobic fluorescent dye, […] (Chattopadhyay et al., Anal. Biochem. 1984, 139, 408-412), and the hydrodynamic radii (Rh) of the micelles were determined via dynamic light scattering (DLS). Table 1 compares the data for TFAs with those for DDM, a conventional detergent that is very widely used for MP applications; DDM and the TFAs share maltose as their hydrophilic moieties. CMC values of the three TFAs are smaller than that of DDM, whether CMC is measured in units of mM or wt %.
Each TFA and DDM was dissolved in distilled, deionized (DI) water to obtain 1 mL of a solution containing 0.5 wt % amphiphile. Each solution was filtered through a 0.02 μm filter for DLS measurements. A 100-mW, 532-nm laser (Compass 315M-100, Coherent, Santa Clara, Calif.) illuminated a temperature-controlled glass cell at 25° C. that was filled with a refractive-index matching fluid (decahydronaphthalene, Fisher Scientific, Pittsburgh, Pa.). The scattered light was collected at an angle of 90° for about 30 minutes. Rh values were determined using the integrated dynamics software that analyzes the time scale of the scattered light intensity fluctuations by an autocorrelation function. The autocorrelation functions (ACFs) were obtained using a BI-9000AT digital autocorrelator (Brookhaven Instruments, Holtsville, N.Y.). Measurements were repeated three times.

SMILES	dn/dc, specific refractive index increment [1] [mL/g]	IV, intrinsic viscosity [1] [dL/g]	N, aggregation number of micelles [1]	Rh (nm) [1] [nm]	MMW, molecular weight of micelles [1] [Da]	Mw/Mn, weight-averaged molecular weight divided by number-averaged molecular weight [1]	MW of micelles in water [1] [kD]	Rh (nm), hydrodynamic radius of micelles measured by dynamic light scattering [2] [nm]
CCCCCCCCCCCCO[C@@H]1O[C@H](CO)[C@@H](O[C@H]2O[C@H](CO)[C@@H](O)[C@H](O)[C@H]2O)[C@H](O)[C@H]1O [DDM, dodecyl-β-D-maltoside, reference compound]	0.130	0.028 ± 0.009	176.4 ± 1.3	3.42 ± 0.04	89982 ± 663	1.01 ± 0.00	~90	3.4 ± 0.03
C[C@H](CCC(=O)N(C)CCCN(C)C(=O)CC[C@@H](C)[C@H]1CC[C@H]2[C@@H]3CC[C@@H]4C[C@H](O[C@@H]5O[C@H](CO)[C@@H](O[C@H]6O[C@H](CO)[C@@H](O)[C@H](O)[C@H]6O)[C@H](O)[C@H]5O)CC[C@]4(C)[C@H]3C[C@H](O[C@@H]3O[C@H](CO)[C@@H](O[C@H]4O[C@H](CO)[C@@H](O)[C@H](O)[C@H]4O)[C@H](O)[C@H]3O)[C@]12C)[C@H]1CC[C@H]2[C@@H]3CC[C@@H]4C[C@H](O[C@@H]5O[C@H](CO)[C@@H](O[C@H]6O[C@H](CO)[C@@H](O)[C@H](O)[C@H]6O)[C@H](O)[C@H]5O)CC[C@]4(C)[C@H]3C[C@H](O[C@@H]3O[C@H](CO)[C@@H](O[C@H]4O[C@H](CO)[C@@H](O)[C@H](O)[C@H]4O)[C@H](O)[C@H]3O)[C@]12C [TFA-1]	0.173	0.036 ± 0.005	6 and 6.2 ± 0.07	1.96 ± 0.01	13279 ± 157	1.00 ± 0.00	~13	1.9 ± 0.08

Source: patent US10316057B2, “Tandem facial amphiphiles” (WISCONSIN ALUMNI RESEARCH FOUNDATION, priority 2011, dated 2019)
